Data reported in patent publication US10173999B2, “Cyclic amine derivative and pharmaceutical use thereof” (Toray Industries, Inc., priority 2015, dated 2019).
Counter-ions that a name gives are not always drawn. One block for each compound: values may come before it.

Legend:
[1] = Stability test in dog liver microsomes; format: in vitro ADME; conditions: pH 7.4; dog liver microsomes 0.5 mg/mL, test compound 2 μmol/L, 37° C., 0-30 min; read-out: Hepatic intrinsic clearance, Dog
Procedure: Experiment was performed using the compound of Example 11, Comparative Example 1 or Comparative Example 6 as a test compound and human liver microsomes (from Xenotech), monkey liver microsomes (from Xenotech), dog liver microsomes (from Xenotech) or mouse liver microsomes (from Xenotech) as the liver microsomes.
The reagents to be used in the stability test in liver microsomes were prepared as follows. A D-glucose 6-phosphate disodium salt (hereinafter referred to as G6P) was dissolved with distilled water to prepare an aqueous solution of G6P (100 mmol/L). Glucose 6-phosphate dehydrogenase (1000 units) from Yeast (hereinafter referred to as G6PDH) was dissolved with distilled water (5 mL) to prepare an aqueous solution of G6PDH (200 units/mL). MgCl2 was dissolved with distilled water to prepare an aqueous solution of MgCl2 (100 mmol/L). […]
With respect to the chromatogram of each well obtained by LC/MS analysis or LC/MS/MS analysis, the test compound residual ratio (%) at each reaction time t (min) was calculated based on the peak area at the reaction time of 0 minute as 100%. […]

[2] = Pharmacokinetics (PK) test in cynomolgus monkeys; format: in vivo, cynomolgus monkey
Procedure: Cynomolgus monkeys (4 to 6 years old, male) were raised under the conditions of voluntary intake of solid food (Oriental Yeast Co., Ltd) and tap water and fasted from the evening of the day before initiation of administration and subjected to an experiment. Note that blood was sampled at 4 hours after administration (on and after 16:00), and thereafter feeding was restarted.
Dosing solution for intravenous administration was injected through the saphenous vein by use of a syringe needle (attached to a syringe barrel). The oral administration into the stomach was compulsively carried out by inserting a catheter into the nasal cavity.
The blood sampled was centrifuged at 4° C. and 1800×g for 15 minutes to obtain the plasma. The plasma thus obtained was stored at about −80° C. until use in preparation of analysis samples. The plasma obtained from a cynomolgus monkey to which a test compound was administrated, is referred to as a plasma sample; whereas the plasma obtained from a cynomolgus monkey to which a test compound was not administered, is referred to as the blank plasma.
(§1) The resulting solution was vortexed and cooled at 4° C. for 10 minutes. A sample for a calibration curve was prepared by adding a standard solution for a calibration curve to the blank plasma and subjecting the resulting mixture to the same treatment. After cooling, each of the samples was spun at 4° C. and 2000 rpm for 10 minutes by a centrifuge (Hitachi Koki Co., Ltd.). The resulting supernatant was used as a sample for LC/MS/MS analysis.
as §1, with “diluted 10 fold with 70 vol % acetonitrile containing 0.1 vol % formic acid and subjected” for “used”, “analysis. The LC/MS/MS analysis conditions were as follows:” for “analysis.”
The test-compound concentrations in the plasma at each sampling time point in the case of intravenous administration or oral administration were calculated and PK analysis was carried out for individual monkeys. PK parameters were calculated by using WinNonlin (Pharsight), in accordance with an analysis independent of a model (intravenous administration: Bolus IV Administration, oral administration: Extravascular Administration; Weight=1/y in both administrations). Furthermore, bioavailability (BA) was calculated based on the following Expression (3) by dividing AUC0-∞iv (time 0 to ∞) at the time of the intravenous administration and AUC0-∞po (time 0 to ∞) at the time of the oral administration by respective dose values to obtained as normalized values. Bioavailability (BA)=(AUC0-∞,po/dose)/(AUC0-∞,iv/dose) (3)

- microsomal CLint at 2 μmol/L [1]: 6 µL/min/mg
Structure (SMILES): CC(C)n1ccnc1CCC(=O)N1CCC(N(C)C)CC1 [Comparative Example 6, 1-(4-(dimethylamino)piperidin-1-yl)-3-(1-isopropyl-1H-imidazol-2-yl)propan-1-one hydrochloride]

Structure (SMILES): CN(C)C1CCN(C(=O)C[C@H](O)c2nccn2C)CC1 [Example 11, (S)-1-(4-(dimethylamino)piperidin-1-yl)-3-hydroxy-3-(1-methyl-1H-imidazol-2-yl)propan-1-one]
- mean plasma concentration after administration compared with Comparative Example 2 ([2]; cynomolgus monkeys, intravenous and oral 1 mg/kg, all time points): higher
- bioavailability ([2]; male, plasma, cynomolgus monkey, 1 mg/kg oral vs 1 mg/kg intravenous, read-out: BA (bioavailability)): 52.6%
- clearance ([2]; male, plasma, cynomolgus monkey, intravenous administration 1 mg/kg, single, read-out: CLtot (total body clearance) (converted)): 3.25 mL/min/kg
- AUC(0-inf) ([2]; male, plasma, cynomolgus monkey, oral administration 1 mg/kg, single): 2730 ng·h/mL
- Cmax ([2]; male, plasma, cynomolgus monkey, oral administration 1 mg/kg, single, read-out: Cmax (maximum plasma concentration)): 279 ng/mL
- half-life ([2]; male, plasma, cynomolgus monkey, oral administration 1 mg/kg, single, read-out: t1/2 (elimination half-life in the plasma) (converted)): 7.55 h
